Results as given in PMC10023787, “Trio-pharmacophore DNA-encoded chemical library for simultaneous selection of fragments and linkers” (Nature Communications, 2023).
Like-named read-outs stand apart in the source and are kept apart here.

Assays:
MMP-2 = biological target: T1, MMP-2 (Homo sapiens, UniProt P08253); test: MMP-2 inhibition assay (fluorogenic peptide substrate); format: biochemical; conditions: for IC50: n.d: not detected
T1 construct: purchased Sino Biological 10082-HNAH
T1 sequence (P08253 110-660): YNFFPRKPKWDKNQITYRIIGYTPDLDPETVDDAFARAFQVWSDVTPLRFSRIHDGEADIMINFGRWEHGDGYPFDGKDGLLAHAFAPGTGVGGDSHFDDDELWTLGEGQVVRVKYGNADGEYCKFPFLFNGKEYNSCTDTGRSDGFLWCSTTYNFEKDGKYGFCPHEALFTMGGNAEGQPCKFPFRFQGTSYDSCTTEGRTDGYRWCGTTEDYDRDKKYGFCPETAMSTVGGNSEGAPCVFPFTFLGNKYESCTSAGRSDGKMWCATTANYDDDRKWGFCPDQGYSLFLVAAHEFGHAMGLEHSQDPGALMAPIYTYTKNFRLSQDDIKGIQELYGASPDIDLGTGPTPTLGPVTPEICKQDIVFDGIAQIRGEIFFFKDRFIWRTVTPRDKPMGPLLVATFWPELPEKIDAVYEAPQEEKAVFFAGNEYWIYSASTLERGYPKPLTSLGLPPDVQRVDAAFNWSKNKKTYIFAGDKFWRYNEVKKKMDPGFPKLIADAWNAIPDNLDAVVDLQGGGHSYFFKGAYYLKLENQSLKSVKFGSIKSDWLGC
Procedure: (§1) The inhibition by the small molecule compounds against MMP-2/MMP-9 was measured using an assay probing the enzyme proteolytic activity on the substrate DNP-Pro-Leu-Gly-Met-Trp-Ser-Arg (Enzo Life Sciences, USA). All assays were performed in the assay buffer containing 50 mM Tris, 100 mM NaCl. 5 mM CaCl2, and 0.1% Brij 35, pH 7.5. Human proMMP-2 and proMMP-9 were purchased from Sino biological (Germany). The proMMPs were activated by 1 mM APMA in the assay buffer at 37 °C for 2 h. After activation, MMP-2 was diluted to 6.5 nM of final assay concentration, and MMP-9 was diluted by the buffer to reach 10 nM of final assay concentration. In each well, 49 μl of enzyme solution was incubated with 1 μl of compounds of series of concentration (nM-mM in DMSO) at RT for 30 min. 2 μl of the FRET substrate was added right before the measurement at a final concentration of 25 μM. The rate of hydrolysis was monitored by quantifying the emission at 360 nm (ex: 280 nm). The emission was measured with intervals of the 30 s for 30 min with Synergy H1 Plate Reader (Agilent, USA). The measurements were done in triplicate. […] Then, curves were plotted as a function of the concentration of the inhibitor against the relative enzyme activity. Vmax was derived from the detected […] signal for each concentration and logistic fitting was performed to obtain IC50 values using Origin 2019b (OriginLab).

MMP-9 = biological target: T2, MMP-9 (Homo sapiens, UniProt P14780); test: MMP-9 inhibition assay (fluorogenic peptide substrate); format: biochemical; parameters: remaining enzyme activity (% of control): scale not given here; conditions: for IC50: n.d: not detected
T2 construct: purchased Sino Biological 10327-HNAH
T2 sequence (P14780 107-707 limits assumed): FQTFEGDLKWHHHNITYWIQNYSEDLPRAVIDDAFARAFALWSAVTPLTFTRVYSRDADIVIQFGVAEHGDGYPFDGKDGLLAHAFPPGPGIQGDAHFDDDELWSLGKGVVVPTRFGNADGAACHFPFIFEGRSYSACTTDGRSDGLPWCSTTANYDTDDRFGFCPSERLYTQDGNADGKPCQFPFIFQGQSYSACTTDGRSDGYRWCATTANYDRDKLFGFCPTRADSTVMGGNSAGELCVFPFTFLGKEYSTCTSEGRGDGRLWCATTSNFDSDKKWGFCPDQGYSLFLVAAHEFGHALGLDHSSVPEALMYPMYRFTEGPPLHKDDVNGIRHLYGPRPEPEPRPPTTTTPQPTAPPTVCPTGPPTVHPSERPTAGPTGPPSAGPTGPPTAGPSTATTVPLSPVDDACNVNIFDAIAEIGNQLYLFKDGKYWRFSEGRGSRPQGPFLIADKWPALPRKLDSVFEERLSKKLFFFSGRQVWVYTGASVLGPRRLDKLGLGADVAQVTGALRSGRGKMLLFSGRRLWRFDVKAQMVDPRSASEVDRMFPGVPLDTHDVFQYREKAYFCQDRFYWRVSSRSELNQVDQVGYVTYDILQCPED
Procedure: as §1

[1] = mean ± SE, Fig. 5d unit inferred, µM, read-out: IC50
[2] = mean ± SE, Fig. 5e prints no unit, µM, read-out: IC50
[3] = Figure 5d, fragment combination joined by linker, read-out: MMP2 IC50
[4] = Figure 5d, fragment combination joined by linker, read-out: MMP9 IC50
[5] = MMP-2, concentration 1219.00 µM
[6] = MMP-9, concentration 1219.00 µM

Row | IC50 (MMP-2; [1]) [µM] | IC50 (MMP-9; [2]) [µM] | IC50 (MMP-2; [3]) [µM] | IC50 (MMP-9; [4]) [µM] | remaining activity (%) (MMP-2; MMP-2, concentration 0.0156 µM) | remaining activity (%) (MMP-2; MMP-2, concentration 0.08 µM) | remaining activity (%) (MMP-2; MMP-2, concentration 0.39 µM) | remaining activity (%) (MMP-2; MMP-2, concentration 1.95 µM) | remaining activity (%) (MMP-2; MMP-2, concentration 9.75 µM) | remaining activity (%) (MMP-2; MMP-2, concentration 48.76 µM) | remaining activity (%) (MMP-2; MMP-2, concentration 243.80 µM) | remaining activity (%) (MMP-2; [5]) | remaining enzyme activity (% of control) (MMP-9; MMP-9, concentration 0.08 µM) | remaining enzyme activity (% of control) (MMP-9; MMP-9, concentration 0.39 µM) | remaining enzyme activity (% of control) (MMP-9; MMP-9, concentration 1.95 µM) | remaining enzyme activity (% of control) (MMP-9; MMP-9, concentration 9.75 µM) | remaining enzyme activity (% of control) (MMP-9; MMP-9, concentration 48.76 µM) | remaining enzyme activity (% of control) (MMP-9; MMP-9, concentration 243.80 µM) | remaining enzyme activity (% of control) (MMP-9; [6]) | further results | Structure (SMILES)
1 | 184 ± 17.3 | 216 ± 47.3 | – | – | – | – | – | – | – | – | – | – | – | – | – | – | – | – | – | remaining activity (%) (MMP-2; MMP-2, concentration 0.00858 µM): 98.41; remaining activity (%) (MMP-2; MMP-2, concentration 0.0429 µM): 98.85; remaining activity (%) (MMP-2; MMP-2, concentration 0.21 µM): 87.72; remaining activity (%) (MMP-2; MMP-2, concentration 1.07 µM): 96.38; remaining activity (%) (MMP-2; MMP-2, concentration 5.36 µM): 85.18; remaining activity (%) (MMP-2; MMP-2, concentration 26.80 µM): 89.19; remaining activity (%) (MMP-2; MMP-2, concentration 670.10 µM): 1.11; remaining activity (%) (MMP-2; MMP-2, concentration […]): 61.21; remaining enzyme activity (% of control) (MMP-9; MMP-9, concentration 0.0429 µM): 93.34; remaining enzyme activity (% of control) (MMP-9; MMP-9, concentration 0.21 µM): 95.33; remaining enzyme activity (% of control) (MMP-9; MMP-9, concentration 1.07 µM): 103.77; remaining enzyme activity (% of control) (MMP-9; MMP-9, concentration 5.36 µM): 97.03; remaining enzyme activity (% of control) (MMP-9; MMP-9, concentration 26.80 µM): 82.56; remaining enzyme activity (% of control) (MMP-9; MMP-9, concentration 670.10 µM): 15.33; remaining enzyme activity (% of control) (MMP-9; MMP-9, concentration […]): 65.61 | O=C(CSCCNC(=O)c1cncc(O)c1)NCC12CC3CC(CC(C3)C1)C2 [66+828 Linker 24]
2 | – | – | 339 | 115 | – | – | – | – | – | – | – | – | – | – | – | – | – | – | – | – | O=C(C=CCCCCC(=O)NCc1c[nH]nn1)CC(=O)NCC12CC3CC(CC(C3)C1)C2 [66_787 12]
3 | – | – | 293 | 521 | – | – | – | – | – | – | – | – | – | – | – | – | – | – | – | – | O=C(CNC(=O)NC12CC3CC(CC(C3)C1)C2)NCCOCCOCCNC(=O)c1cncc(O)c1 [66_828 10]
4 | – | – | 488 | 77.4 | – | – | – | – | – | – | – | – | – | – | – | – | – | – | – | – | O=C(/C=C/CCCCNC(=O)c1cncc(O)c1)CC(=O)NCC12CC3CC(CC(C3)C1)C2 [66_828 12]
5 | – | – | 184 | 216 | – | – | – | – | – | – | – | – | – | – | – | – | – | – | – | – | O=C(CSCCNC(=O)c1cncc(O)c1)NCC12CC3CC(CC(C3)C1)C2 [66_828 24]
6 | 95.5 ± 35.1 | 143 ± 32.6 | – | – | 89.30 | 95.29 | 92.88 | 92.98 | 84.05 | 61.94 | 24.12 | 0.00 | 89.67 | 88.12 | 85.78 | 75.76 | 77.96 | 22.66 | 0.00 | – | O=C(Cn1cnc2c(oc3ccccc32)c1=O)NCc1c[nH]nn1 [182+787 Linker 1]
7 | 193 ± 24.2 | 134 ± 39.6 | – | – | 85.89 | 83.14 | 79.52 | – | 75.23 | 75.41 | 40.43 | 0.00 | 91.89 | 89.82 | 91.34 | 95.46 | 62.79 | 34.94 | 0.00 | – | O=C(CCC(=O)NCc1c[nH]nn1)NCCCCCCCCNC(=O)Cn1cnc2c(oc3ccccc32)c1=O [182+787 Linker 4]
8 | 137 ± 37.5 | 126 ± 12 | – | – | 104.21 | 112.47 | 110.12 | 98.52 | 97.01 | 78.57 | 30.14 | 0.00 | 100.62 | 94.43 | 101.63 | 94.48 | 72.77 | 28.00 | 0.00 | – | O=C(CCC(=O)NCc1c[nH]nn1)NCCOCCOCCNC(=O)Cn1cnc2c(oc3ccccc32)c1=O [182+787 Linker 10]
9 | 45.9 ± 16.2 | 126 ± 9.6 | – | – | – | – | – | – | – | – | – | – | – | – | – | – | – | – | – | remaining activity (%) (MMP-2; MMP-2, concentration 0.0171 µM): 92.17; remaining activity (%) (MMP-2; MMP-2, concentration 0.0855 µM): 86.66; remaining activity (%) (MMP-2; MMP-2, concentration 0.43 µM): 97.11; remaining activity (%) (MMP-2; MMP-2, concentration 2.14 µM): 88.49; remaining activity (%) (MMP-2; MMP-2, concentration 10.69 µM): 87.27; remaining activity (%) (MMP-2; MMP-2, concentration 53.44 µM): 39.59; remaining activity (%) (MMP-2; MMP-2, concentration 267.20 µM): 13.68; remaining enzyme activity (% of control) (MMP-9; MMP-9, concentration 0.0855 µM): 86.26; remaining enzyme activity (% of control) (MMP-9; MMP-9, concentration 0.43 µM): 83.15; remaining enzyme activity (% of control) (MMP-9; MMP-9, concentration 2.14 µM): 95.29; remaining enzyme activity (% of control) (MMP-9; MMP-9, concentration 10.69 µM): 93.78; remaining enzyme activity (% of control) (MMP-9; MMP-9, concentration 53.44 µM): 70.78; remaining enzyme activity (% of control) (MMP-9; MMP-9, concentration 267.20 µM): 19.03 | O=C(CSCCNC(=O)Cn1cnc2c(oc3ccccc32)c1=O)NCc1c[nH]nn1 [182+787 Linker 24]
10 | – | – | – | – | – | – | – | 93.31 | – | – | – | – | – | – | 89.70 | – | – | – | – | remaining activity (%) (MMP-2; MMP-2, concentration 0.12 µM): 94.84; remaining activity (%) (MMP-2; MMP-2, concentration 0.49 µM): 90.90; remaining activity (%) (MMP-2; MMP-2, concentration 7.81 µM): 101.10; remaining activity (%) (MMP-2; MMP-2, concentration 31.25 µM): 86.65; remaining activity (%) (MMP-2; MMP-2, concentration 125.00 µM): 86.38; remaining activity (%) (MMP-2; MMP-2, concentration 500.00 µM): 61.56; remaining enzyme activity (% of control) (MMP-9; MMP-9, concentration 0.12 µM): 83.90; remaining enzyme activity (% of control) (MMP-9; MMP-9, concentration 0.49 µM): 96.21; remaining enzyme activity (% of control) (MMP-9; MMP-9, concentration 7.81 µM): 92.69; remaining enzyme activity (% of control) (MMP-9; MMP-9, concentration 31.25 µM): 77.21; remaining enzyme activity (% of control) (MMP-9; MMP-9, concentration 125.00 µM): 71.00; remaining enzyme activity (% of control) (MMP-9; MMP-9, concentration 500.00 µM): 60.44 | Cn1c(O)nc2cc(C(=O)NCCNC(=O)Cn3cnc4c(oc5ccccc54)c3=O)cnc21 [182+826 Linker 1]
